From US20130131321A1, “LIGANDS FOR ANTIBODY AND Fc-FUSION PROTEIN PURIFICATION BY AFFINITY CHROMATOGRAPHY” (GRAFFINITY PHARMACEUTICALS GMBH, priority 2010, published 2013)
Where two headings read alike, the source gives them in different places.

Assays:
[1] = tested on: human poly-IgG (h-poly-IgG); experiment: Microtiter plate chromatography of resins, human poly-IgG (bound, yield); type: binding
Tocilizumab = experiment: Microtiter plate chromatography of resins, Tocilizumab (bound, yield); type: binding, humanized
host cell proteins (HCP) = experiment: Microtiter plate chromatography of resins, host cell proteins (bound); type: binding, CHO; conditions: host cell proteins
Palivizumab = experiment: Microtiter plate chromatography of resins, Palivizumab (bound, yield); type: binding, humanized
Bevacizumab [2] = experiment: Microtiter plate chromatography of resins, Bevacizumab whole IgG (bound, yield, selectivity); type: binding, humanized
Bevacizumab [3] = target: T1, Bevacizumab (Homo sapiens, UniProt P01857); experiment: as above; type: binding, humanized; conditions: for Bevacizumab IgG Bound (%): fraction of whole IgG Bevacizumab bound to resin; for Bevacizumab IgG Yield (%): mass of whole IgG Bevacizumab eluted / mass injected
T1 construct: fused on or other part: humanised anti-VEGF-A VH domain N-terminal of the gamma-1 constant region (engineered, no UniProt entry)

[4] = fraction of bound Bevacizumab whole IgG / fraction of bound HCP, truncated beyond values of 10

SMILES | h-poly-IgG Bound (%) [1] [%] | h-poly-IgG Yield (%) [1] [%] | Tocilizumab Bound (%) (Tocilizumab) | Tocilizumab Yield (%) (Tocilizumab) | HCP Bound (%) (host cell proteins (HCP)) | Palivizumab Bound (%) (Palivizumab) | Palivizumab Yield (%) (Palivizumab) | Selectivity (Bevacizumab [2]; [4]) | Bevacizumab IgG Bound (%) (Bevacizumab [3]) | Bevacizumab IgG Yield (%) (Bevacizumab [3]) | Selectivity (Bevacizumab [2])
COc1ccc(NC(=O)c2nc3cccnc3[nH]2)cc1C(=O)NCCCN [Ligand L41, 5-(3H-Imidazo[4,5-b]pyridin-2-ylcarboxamido)-2-methoxybenzoic acid (3-amino-1-propyl)amide] | 85 | 85 | 91 | 91 | 9 | 74 | 71 | 10.0 | 100 | 100 | –
COc1ccc(NC(=O)c2cc(-c3csc(C)n3)on2)cc1C(=O)NCCCN [Ligand L42, 2-Methoxy-5-[5-(2-methylthiazol-4-yl)isoxazol-3-ylcarboxamido]benzoic acid (3-amino-1-propyl)amide] | 100 | 100 | 100 | 99 | 32 | 99 | 99 | – | 100 | 92 | 3.1
COc1ccc(NC(=O)c2nnc3ccccn23)cc1C(=O)NCCCN [Ligand L43, 2-Methoxy-5-([1,2,4]triazolo[4,3-a]pyridin-3-ylcarboxamido)benzoic acid (3-amino-1-propyl)amide] | 90 | 90 | 88 | 88 | 13 | 61 | 43 | – | 100 | 90 | 8.0
COc1ccc(NC(=O)c2nn(C)c3ncccc23)cc1C(=O)NCCCN [Ligand L44, 2-Methoxy-5-(1-methylpyrazolo[3,4-b]pyridin-3-ylcarboxamido)benzoic acid (3-amino-1-propyl)amide] | 73 | 73 | 78 | 78 | 4 | 56 | 56 | 10.0 | 100 | 100 | –
COc1ccc(NC(=O)c2cc(-c3ccco3)on2)cc1C(=O)NCCCN [Ligand L45, 5-[5-(2-Furyl)isoxazol-3-ylcarboxamido]-2-methoxybenzoic acid (3-amino-1-propyl)amide] | 100 | 100 | 100 | 100 | 44 | 100 | 100 | – | 100 | 82 | 2.3
COc1ccc(NC(=O)c2cc3ccccn3n2)cc1C(=O)NCCCN [Ligand L46, 2-Methoxy-5-(pyrazolo[1,5-a]pyridin-2-ylcarboxamido)benzoic acid (3-amino-1-propyl)amide] | 93 | 93 | 100 | 97 | 20 | 85 | 85 | – | 100 | 82 | 5.0
COc1ccc(NC(=O)c2nc3ccccc3[nH]2)cc1C(=O)NCCCN [Ligand L47, 5-(1H-Benzimidazol-2-ylcarboxamido)-2-methoxybenzoic acid (3-amino-1-propyl)amide] | 71 | 65 | 100 | 100 | 35 | 85 | 85 | – | 100 | 97 | 2.9
COc1ccc(NC(=O)c2cn3ncccc3n2)cc1C(=O)NCCCN [Ligand L48, 5-(Imidazo[1,2-b]pyridazin-2-ylcarboxamido)-2-methoxybenzoic acid (3-amino-1-propyl)amide] | 84 | 84 | 87 | 87 | 8 | 58 | 54 | 10.0 | 100 | 97 | –
COc1ccc(NC(=O)c2cc(-c3ccccc3)no2)cc1C(=O)NCCCN [Ligand L51, 2-Methoxy-5-(3-phenylisoxazol-5-ylcarboxamido)benzoic acid (3-amino-1-propyl)amide] | 89 | 89 | 95 | 93 | 30 | 85 | 85 | – | 100 | 95 | 3.3
COc1ccc(NC(=O)c2cc(-c3ccco3)ccn2)cc1C(=O)NCCCN [Ligand L52, 5-[4-(2-Furyl)pyridin-2-ylcarboxamido]-2-methoxybenzoic acid (3-amino-1-propyl)amide] | 100 | 100 | 100 | 100 | 41 | 100 | 83 | – | 100 | 99 | 2.4
COc1ccc(-c2noc(C(=O)Nc3ccc(OC)c(C(=O)NCCCN)c3)n2)cc1 [Ligand L54, 2-Methoxy-5-[3-(4-methoxyphenyl)-1,2,4-oxadiazol-5-ylcarboxamido]benzoic acid (3-amino-1-propyl)amide] | 100 | 98 | 100 | 100 | 36 | 100 | 84 | – | 100 | 100 | 2.8
COc1ccc(NC(=O)c2nc(-c3ccco3)no2)cc1C(=O)NCCCN [Ligand L55, 5-[3-(2-Furyl)-1,2,4-oxadiazol-5-ylcarboxamido]-2-methoxybenzoic acid (3-amino-1-propyl)amide] | 100 | 93 | 100 | 100 | 31 | 100 | 99 | – | 100 | 95 | 3.3
COc1ccc(NC(=O)c2cc3ncccn3n2)cc1C(=O)NCCCN [Ligand L56, 2-Methoxy-5-(pyrazolo[1,5-a]pyrimidin-2-ylcarboxamido)benzoic acid (3-amino-1-propyl)amide] | 83 | 83 | 95 | 95 | 21 | 81 | 79 | – | 100 | 95 | 4.9
COc1ccc(NC(=O)c2cn3ccccc3n2)cc1C(=O)NCCCN [Ligand L57, 5-(Imidazo[1,2-a]pyridin-2-ylcarboxamido)-2-methoxybenzoic acid (3-amino-1-propyl)amide] | 53 | 53 | 78 | 78 | 16 | 44 | 42 | – | 100 | 90 | 6.3
